Results from patent publication US9334264B2, “NAMPT inhibitors” (AbbVie Inc., priority 2012, dated 2016).

Assays:
[1] = molecular target: NAMPT (human, recombinant, C-terminally His-tagged) (Homo sapiens, UniProt P43490); test: Time-Resolved Fluorescence Resonance Energy Transfer (TR-FRET) Binding Assay of NAMPT; details: absence of substrates; 6.8 nM NAMPT, 200 nM probe, equilibrated 3 hours
Method: Determination of the utility of compounds having Formula (I) as binders to and inhibitors of NAMPT was performed using Time-Resolved Fluorescence Resonance Energy Transfer (TR-FRET) binding assays.
Time-Resolved Fluorescence Resonance Energy Transfer (TR-FRET) Binding Assay of NAMPT
Test compounds were serially diluted (typically 11 half log dilutions) in neat DMSO to 50× final concentrations prior to dilution with assay buffer (50 mM HEPES (NaOH), pH 7.5, 100 mM NaCl, 10 mM MgCl2, 1 mM DTT, 1% Glycerol) to 3× and 6% DMSO. Six μL were transferred to 384-well low-volume plates (Owens Corning #3673). To this, 12 μL of a 1.5× solution containing enzyme, probe and antibody were added. Final concentrations in the 18 μL reactions were 1× assay buffer, 2% DMSO, 6.8 nM NAMPT (human, recombinant, C-terminally His-tagged), 200 nM probe (a potent nicotinamide-competitive inhibitor conjugated to Oregon Green 488) and 1 nM Tb-anti-His antibody (Invitrogen #PV5895). Reactions were equilibrated at room temperature for 3 hours prior to reading on an Envision multi-label plate reader (Perkin Elmer; Ex=337 nm, Em=520 and 495 nm). Time-resolved FRET ratios (Em520/Em495) were normalized to controls, plotted as a function of compound concentration and fit with the four-parameter logistic equation to determine IC50s.

NAMPT = NAMPT (Homo sapiens, UniProt P43490); test: Time-Resolved Fluorescence Resonance Energy Transfer (TR-FRET) Binding Assay of NAMPT with PRPP; details: 200 μM PRPP and 2.5 mM ATP; 2 nM NAMPT, 2 nM probe, equilibrated 16 hours
Method: Time-Resolved Fluorescence Resonance Energy Transfer (TR-FRET) Binding Assay of NAMPT with PRPP
Compound handling and data processing were identical to the assay in the absence of substrates (above). Final concentrations were 1× assay buffer, 2% DMSO, 2 nM NAMPT, 2 nM probe, 1 nM Tb-anti-His antibody (Invitrogen #PV5895), 200 μM PRPP and 2.5 mM ATP. Reactions were equilibrated for 16 hours prior to measurement to allow for potential enzymatic modification of test compounds.

Chain of NAMPT (human, recombinant, C-terminally His-tagged) (P43490 whole entry): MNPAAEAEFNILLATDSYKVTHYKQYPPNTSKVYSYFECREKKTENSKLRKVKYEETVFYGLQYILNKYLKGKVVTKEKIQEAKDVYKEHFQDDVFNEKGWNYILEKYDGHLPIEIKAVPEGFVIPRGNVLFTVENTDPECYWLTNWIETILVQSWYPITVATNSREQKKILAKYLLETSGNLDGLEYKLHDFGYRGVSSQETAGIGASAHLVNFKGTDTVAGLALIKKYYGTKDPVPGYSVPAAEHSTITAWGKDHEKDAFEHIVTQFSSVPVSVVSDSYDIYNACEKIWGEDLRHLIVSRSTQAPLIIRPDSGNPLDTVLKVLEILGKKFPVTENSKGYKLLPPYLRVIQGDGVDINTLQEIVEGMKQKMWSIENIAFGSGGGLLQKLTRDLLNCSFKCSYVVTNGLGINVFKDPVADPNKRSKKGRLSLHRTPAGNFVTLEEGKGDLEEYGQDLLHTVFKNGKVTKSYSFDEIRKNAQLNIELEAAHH
Chain of NAMPT (P43490 whole entry): as above

COCCNC(=O)N(CCc1ccc(Cl)cn1)c1ncc(C(=O)NCCCn2ccnc2)s1 [Example 209, 2-{[2-(5-chloropyridin-2-yl)ethyl][(2-methoxyethyl)carbamoyl]amino}-N-[3-(1H-imidazol-1-yl)propyl]-1,3-thiazole-5-carboxamide]
IC50 [1]: 6700 nM | IC50 (NAMPT): 0.245 nM

COCCC(=O)N(Cc1ccnc(OC)c1)c1ncc(C(=O)NCCCn2ccnc2)s1 [Example 94, N-[3-(1H-imidazol-1-yl)propyl]-2-{(3-methoxypropanoyl)[(2-methoxypyridin-4-yl)methyl]amino}-1,3-thiazole-5-carboxamide]
IC50 [1]: 2870 nM | IC50 (NAMPT): 1.22 nM

COCCC(=O)N(Cc1ccc(C)nc1)c1ncc(C(=O)NCCCn2ccnc2)s1 [Example 113, N-[3-(1H-imidazol-1-yl)propyl]-2-{(3-methoxypropanoyl)[(6-methylpyridin-3-yl)methyl]amino}-1,3-thiazole-5-carboxamide]
IC50 [1]: 4990 nM | IC50 (NAMPT): 6.76 nM

CCN1CC(CN(C(=O)CCOC)c2ncc(C(=O)NCCCn3ccnc3)s2)CC1=O (stereo not drawn) [Example 193, 2-{[(1-ethyl-5-oxopyrrolidin-3-yl)methyl](3-methoxypropanoyl)amino}-N-[3-(1H-imidazol-1-yl)propyl]-1,3-thiazole-5-carboxamide]
IC50 [1]: 6060 nM | IC50 (NAMPT): 0.755 nM

O=C(NCCCn1ccnc1)c1cnc(N(Cc2ccc(F)cc2)C(=O)N2CC(O)C2)s1 [Example 66, 2-{(4-fluorobenzyl)[(3-hydroxyazetidin-1-yl)carbonyl]amino}-N-[3-(1H-imidazol-1-yl)propyl]-1,3-thiazole-5-carboxamide]
IC50 [1]: > 10000 nM | IC50 (NAMPT): 2.42 nM

COCCN(C(=O)Cc1ccc(N)cc1)c1ncc(C(=O)NCCCn2ccnc2)s1 [Example 188, 2-{[(4-aminophenyl)acetyl](2-methoxyethyl)amino}-N-[3-(1H-imidazol-1-yl)propyl]-1,3-thiazole-5-carboxamide]
IC50 [1]: 356 nM | IC50 (NAMPT): 0.195 nM

COCCC(=O)N(Cc1cccc(C)c1)c1ncc(C(=O)NCCCn2ccnc2)s1 [Example 120, N-[3-(1H-imidazol-1-yl)propyl]-2-[(3-methoxypropanoyl)(3-methylbenzyl)amino]-1,3-thiazole-5-carboxamide]
IC50 [1]: 3780 nM | IC50 (NAMPT): 2.29 nM

CC(C)CC(=O)N(Cc1ccc(C#N)cc1)c1ncc(C(=O)NCCCn2ccnc2)s1 [Example 50, 2-[(4-cyanobenzyl)(3-methylbutanoyl)amino]-N-[3-(1H-imidazol-1-yl)propyl]-1,3-thiazole-5-carboxamide]
IC50 [1]: 1180 nM | IC50 (NAMPT): 2.52 nM

COCCC(=O)N(CCc1ccc(Cl)cn1)c1ncc(C(=O)NCCCn2ccnc2)s1 [Example 207, 2-{[2-(5-chloropyridin-2-yl)ethyl](3-methoxypropanoyl)amino}-N-[3-(1H-imidazol-1-yl)propyl]-1,3-thiazole-5-carboxamide]
IC50 [1]: 3860 nM | IC50 (NAMPT): 0.331 nM

COCC(=O)N(CCC(C)C)c1ncc(C(=O)NCCCn2ccnc2)s1 [Example 151, N-[3-(1H-imidazol-1-yl)propyl]-2-[(methoxyacetyl)(3-methylbutyl)amino]-1,3-thiazole-5-carboxamide]
IC50 [1]: 219 nM | IC50 (NAMPT): 0.412 nM

COCCC(=O)N(Cc1cnc(C)cn1)c1ncc(C(=O)NCCCn2ccnc2)s1 [Example 115, N-[3-(1H-imidazol-1-yl)propyl]-2-{(3-methoxypropanoyl)[(5-methylpyrazin-2-yl)methyl]amino}-1,3-thiazole-5-carboxamide]
IC50 [1]: 1420 nM | IC50 (NAMPT): 3.6 nM

COCCC(=O)N(c1ncc(C(=O)NCCCn2ccnc2)s1)C(C)c1ccccn1 (stereo not drawn) [Example 110, N-[3-(1H-imidazol-1-yl)propyl]-2-{(3-methoxypropanoyl)[1-(pyridin-2-yl)ethyl]amino}-1,3-thiazole-5-carboxamide]
IC50 [1]: > 10000 nM | IC50 (NAMPT): 23.2 nM

COCCC(=O)N(Cc1ccccc1C)c1ncc(C(=O)NCCCn2ccnc2)s1 [Example 119, N-[3-(1H-imidazol-1-yl)propyl]-2-[(3-methoxypropanoyl)(2-methylbenzyl)amino]-1,3-thiazole-5-carboxamide]
IC50 [1]: 4570 nM | IC50 (NAMPT): 1.89 nM

CC(O)CNC(=O)N(Cc1ccc(C#N)cc1)c1ncc(C(=O)NCCCn2ccnc2)s1 (stereo not drawn) [Example 128, 2-{(4-cyanobenzyl)[(2-hydroxypropyl)carbamoyl]amino}-N-[3-(1H-imidazol-1-yl)propyl]-1,3-thiazole-5-carboxamide]
IC50 [1]: > 10000 nM | IC50 (NAMPT): 0.727 nM

CC(C)CCN(C(=O)CC1CCOC1)c1ncc(C(=O)NCCCn2ccnc2)s1 (stereo not drawn) [Example 174, N-[3-(1H-imidazol-1-yl)propyl]-2-[(3-methylbutyl)(tetrahydrofuran-3-ylacetyl)amino]-1,3-thiazole-5-carboxamide]
IC50 [1]: 334 nM | IC50 (NAMPT): 0.714 nM

O=C(NCCCn1ccnc1)c1cnc(N(Cc2ccc(F)cc2)C(=O)CN2CC=CCC2)s1 [Example 27, 2-[(3,6-dihydropyridin-1(2H)-ylacetyl)(4-fluorobenzyl)amino]-N-[3-(1H-imidazol-1-yl)propyl]-1,3-thiazole-5-carboxamide]
IC50 [1]: > 10000 nM | IC50 (NAMPT): 0.632 nM

CC(=O)NCCNC(=O)N(Cc1ccc(C#N)cc1)c1ncc(C(=O)NCCCn2ccnc2)s1 [Example 145, 2-[{[2-(acetylamino)ethyl]carbamoyl}(4-cyanobenzyl)amino]-N-[3-(1H-imidazol-1-yl)propyl]-1,3-thiazole-5-carboxamide]
IC50 [1]: > 10000 nM | IC50 (NAMPT): 107 nM

N#Cc1ccc(CN(C(=O)NCCCO)c2ncc(C(=O)NCCCn3ccnc3)s2)cc1 [Example 130, 2-{(4-cyanobenzyl)[(3-hydroxypropyl)carbamoyl]amino}-N-[3-(1H-imidazol-1-yl)propyl]-1,3-thiazole-5-carboxamide]
IC50 [1]: > 10000 nM | IC50 (NAMPT): 1.11 nM

COCCC(=O)N(Cc1c(F)cccc1F)c1ncc(C(=O)NCCCn2ccnc2)s1 [Example 112, 2-[(2,6-difluorobenzyl)(3-methoxypropanoyl)amino]-N-[3-(1H-imidazol-1-yl)propyl]-1,3-thiazole-5-carboxamide]
IC50 [1]: 3680 nM | IC50 (NAMPT): 2.08 nM

COCCC(=O)N(CC1CCC(=O)N1)c1ncc(C(=O)NCCCn2ccnc2)s1 (stereo not drawn) [Example 194, N-[3-(1H-imidazol-1-yl)propyl]-2-{(3-methoxypropanoyl)[(5-oxopyrrolidin-2-yl)methyl]amino}-1,3-thiazole-5-carboxamide]
IC50 [1]: 7250 nM | IC50 (NAMPT): 1.12 nM

C=C[C@H](CO)NC(=O)N(Cc1ccc(C#N)cc1)c1ncc(C(=O)NCCCn2ccnc2)s1 [Example 148, 2-[(4-cyanobenzyl){[(2R)-1-hydroxybut-3-en-2-yl]carbamoyl}amino]-N-[3-(1H-imidazol-1-yl)propyl]-1,3-thiazole-5-carboxamide]
IC50 [1]: > 10000 nM | IC50 (NAMPT): 60.6 nM

CCOCC(O)CNC(=O)N(Cc1ccc(C#N)cc1)c1ncc(C(=O)NCCCn2ccnc2)s1 (stereo not drawn) [Example 143, 2-{(4-cyanobenzyl)[(3-ethoxy-2-hydroxypropyl)carbamoyl]amino}-N-[3-(1H-imidazol-1-yl)propyl]-1,3-thiazole-5-carboxamide]
IC50 [1]: > 10000 nM | IC50 (NAMPT): 13.7 nM

CC(C)N1CCN(CC(=O)N(Cc2ccc(F)cc2)c2ncc(C(=O)NCCCn3ccnc3)s2)CC1 [Example 31, 2-[(4-fluorobenzyl){[4-(propan-2-yl)piperazin-1-yl]acetyl}amino]-N-[3-(1H-imidazol-1-yl)propyl]-1,3-thiazole-5-carboxamide]
IC50 [1]: 3600 nM | IC50 (NAMPT): 0.893 nM

NC(=O)C1CCCN(C(=O)N(Cc2ccc(F)cc2)c2ncc(C(=O)NCCCn3ccnc3)s2)C1 (stereo not drawn) [Example 65, N^1-(4-fluorobenzyl)-N^1-(5-{[3-(1H-imidazol-1-yl)propyl]carbamoyl}-1,3-thiazol-2-yl)piperidine-1,3-dicarboxamide]
IC50 [1]: > 10000 nM | IC50 (NAMPT): 5.37 nM

O=C(NCCCn1ccnc1)c1cnc(N(Cc2ccc(F)cc2)C(=O)CN2CCC3(C2)OCCO3)s1 [Example 43, 2-[(1,4-dioxa-7-azaspiro[4.4]non-7-ylacetyl)(4-fluorobenzyl)amino]-N-[3-(1H-imidazol-1-yl)propyl]-1,3-thiazole-5-carboxamide]
IC50 [1]: 8110 nM | IC50 (NAMPT): 0.709 nM

O=C(NCCCn1ccnc1)c1cnc(N(CCc2ccc(Cl)cn2)C(=O)C2CCOC2)s1 (stereo not drawn) [Example 208, 2-{[2-(5-chloropyridin-2-yl)ethyl](tetrahydrofuran-3-ylcarbonyl)amino}-N-[3-(1H-imidazol-1-yl)propyl]-1,3-thiazole-5-carboxamide]
IC50 [1]: 2890 nM | IC50 (NAMPT): 0.25 nM

CC(C)CCN(C(=O)COc1ccccc1)c1ncc(C(=O)NCCCn2ccnc2)s1 [Example 136, N-[3-(1H-imidazol-1-yl)propyl]-2-[(3-methylbutyl)(phenoxyacetyl)amino]-1,3-thiazole-5-carboxamide]
IC50 [1]: 24.4 nM | IC50 (NAMPT): 0.174 nM
